In patent publication US11969425B2, “Inhibitor of indoleamine-2,3-dioxygenase (IDO)” (InventisBio LLC, priority 2016, dated 2024):
Where two headings read alike, the source gives them in different places.

Tests used:
[1] = tested on: kynurenine production in HeLa cells; assay: Inhibition of kynurenine production in HeLa cells; type: cell-based, human; conditions: Homo sapiens, HeLa, 48 h
Procedure: The effect of compounds described herein on the inhibition of kynurenine production in HeLa cells (derived from human cervical cancer) was determined. HeLa cells were seeded into a 96-well culture plate at a density of 5×10^3 per well in RPMI1640/phenol red free media (from GIBCO) with 2 mM L-glutamine and 10% fetal bovine serum (FBS, from GIBCO) and grown overnight in a 37° C. incubator with 5% CO2. Twenty-four hours later, human IFN-γ (from GIBCO) (final concentration 50 ng/mL) and test compound solutions (serially diluted to different wells) were added to each well with a final volume of 200 uL per well. Forty-eight hours after incubation with compounds, 140 uL supernatant was taken from each well and was transferred to a new 96-well plate. Ten microliters of 6.1 N trichloroacetic acid were added into each well, mixed and incubated at 50° C. for 30 minutes. The reaction mixture was then centrifuged for 10 minutes at 2500 rpm and 100 uL of the supernatant per well was transferred to another 96 well plate and mixed with 100 uL of 2% (w/v) p-dimethylaminobenzaldehyde in acetic acid. The yellow color derived from kynurenine was measured at 480 nm using a SPECTRAmax i3 reader. Each compound concentration was done in triplicates and compound IC50 value was calculated using nonlinear regression using Graphpad Prism 5.0.
The inhibitory activity of representative compounds described herein, compared with another IDO inhibitor, such as INCB-24360, Controls 1 and 2 are shown in Table 2.

[2] = Human hepatocyte clearance study; type: in vitro ADME; conditions: pooled cryopreserved human hepatocytes (suspension); for CLint scaled at 1 µM: human, scaled up from in vitro t1/2, scaling factor 2544.3, read-out: Human Scale-up Clint; for hepatocyte CLint at 1 µM / half-life at 1 µM: pooled human hepatocytes; for hepatocyte CLint at 1 µM: read-out: Human In vitro Clint (μL/min/10^6 cells); for half-life at 1 µM: read-out: Human In vitro T1/2
Procedure: (§1) The in vitro human hepatocyte clearance of compounds described here was studied using pooled human hepatocytes purchased from BioreclamationIVT (Westbury, NY, Cat #X008001, Lot #TQJ). The assay was conducted according to manufacture's instruction. Briefly, 10 mM stock solutions of test compounds and positive control (Verapamil) were prepared in 100% DMSO. Thawing media (50 mL) used in the study consists of: 31 mLWilliams E medium (GIBCO Cat #12551-032); 15 mL isotonic percoll (GE Healthcare Cat #17-0891-09); 500 uL 100XGlutaMax (GIBCO Cat #35050); 750 uL HEPES (GIBCO Cat #15630-080); 2.5 mL FBS (Corning Cat #35-076*CVR); 50 uL human insulin (GIBCO Cat #12585-014) and 5 uL dexamethasone (NICPBP). Incubation media is made of Williams E medium supplemented with 1xGlutaMax. Both thawing medium and incubation medium (serum-free) were placed in a 37° C. water bath for at least 15 minutes prior to use. Compound stock solutions were diluted to 100 μM by combining 198 μL of 50% acetonitrile/50% water and 2 μL of 10 mM stock solution. Verapamil was use as positive control in the assay. Vials of cryopreserved hepatocytes were removed from storage and thawed in a 37° C. water bath with gentle shaking. Contents of the vial were poured into the 50 mL thawing medium conical tube. Vials were centrifuged at 100 g for 10 minutes at room temperature. Thawing medium was aspirated and hepatocytes were re-suspended with serum-free incubation medium to yield ˜1.5×10^6 cells/mL. Hepatocyte viability and density were counted using a Trypan Blue exclusion, and then cells were diluted with serum-free incubation medium to a working cell density of 0.5×10^6 viable cells/mL. Then, a portion of the hepatocytes at 0.5×10^6 viable cells/mL was boiled for 5 minutes prior to adding to the plate as negative control to eliminate the enzymatic activity so that little or no substrate turnover should be observed. The boiled hepatocytes were used to prepare negative samples. Aliquots of 198 μL hepatocytes were dispensed into each well of a 96-well non-coated plate. The plate was placed in the incubator on an orbital shaker at 500 rpm for approximately 10 minutes. Aliquots of 2 μL of the 100 μM test compound or positive control were added into respective wells of the non-coated 96-well plate to start the reaction. This assay was performed in duplicate. The plate was incubated in the incubator on an orbital shaker at 500 rpm for the designated time points. Twenty-five microliter of contents were transferred and mixed with 6 volumes (150 μL) of cold acetonitrile with IS (200 nM imipramine, 200 nM labetalol and 200 nM diclofenac) to terminate the reaction at time points of 0, 15, 30, 60, 90 and 120 minutes. Samples were centrifuged at 3,220 g for 25 minutes and aliquots of 150 μL of the supernatants were used for LC-MS/MS analysis. For data analysis, all calculations were carried out using Microsoft Excel. Peak areas were determined from extracted ion chromatograms. The in vitro half-life (t1/2) of parent compound was determined by regression analysis of the percent parent disappearance vs. time curve. The in vitro half-life (in vitro t1/2) was determined from the slope value: in vitro t1/2=0.693/k. […] Scaling factors for in vivo intrinsic clearance prediction using human hepatocytes are listed as: liver weight (g liver/kg body weight): 25.7; hepatocyte concentration (10^6 cells/g liver): 99; scaling factor: 2544.3.

pooled human hepatocytes = assay: Human hepatocyte clearance study; type: in vitro ADME; conditions: pooled human hepatocytes, 120 min
Procedure: as §1

[3] = HeLa cells, human IFN-γ 50 ng/mL, kynurenine read at 480 nm, read-out: IC50

SMILES	IC50 [1, 3] [nM]	further results
CC(C)CN(CC(C)C)c1ccc(C2(C(=O)O)CCC2)cc1NC(=O)Nc1ccc(F)cc1F [Compound 16]	1.5	CLint scaled at 1 µM [2]: 1.8 mL/min/kg; hepatocyte CLint at 1 µM [2]: 0.7 µL/min/1e6 cells; half-life at 1 µM [2]: 31.4 h; Human Hepatocyte Remaining Percentage @ 120 min (pooled human hepatocytes): 101
CC(C)CN(c1ccc(C2(C(=O)O)CCC2)cc1NC(=O)Nc1ccc(F)cc1F)C1CCOCC1 [Compound 25]	0.6	CLint scaled at 1 µM [2]: 3.9 mL/min/kg; hepatocyte CLint at 1 µM [2]: 1.5 µL/min/1e6 cells; half-life at 1 µM [2]: 15 h; Human Hepatocyte Remaining Percentage @ 120 min (pooled human hepatocytes): 89
CC(C)CN(CC(C)C)c1ccc(C2(C(=O)O)CCCC2)cc1Nc1ccccc1 [Compound 48]	8.4	CLint scaled at 1 µM [2]: 2 mL/min/kg; hepatocyte CLint at 1 µM [2]: 0.8 µL/min/1e6 cells; half-life at 1 µM [2]: 28.9 h; Human Hepatocyte Remaining Percentage @ 120 min (pooled human hepatocytes): 105
CCC(C(=O)O)c1ccc(N(CC(C)C)C2CCOCC2)c(Nc2ccc(F)cc2F)c1 (stereo not shown) [Compound 69]	3.9	–
CCC(C(=O)O)c1ccc(N(CC(C)C)C2CCOCC2)c(Nc2ccc(C#N)cc2)c1 (stereo not shown) [Compound 70A]	0.4	–
CC(C)CN(c1ccc(C2(C(=O)O)CCC2)cc1Nc1ccc(C#N)cc1)C1CCOCC1 [Compound 72]	0.2	–
CCOc1ccc(Nc2cc(C3(C(=O)O)CCC3)ccc2N(CC(C)C)C2CCOCC2)cc1 [Compound 73]	0.4	–
CC(C)CN(c1ccc(C2(C(=O)O)CCC2)cc1Nc1cncnc1)C1CCOCC1 [Compound 74]	1.9	–
CCOc1ncc(Nc2cc(C3(C(=O)O)CCC3)ccc2N(CC(C)C)C2CCOCC2)cn1 [Compound 75]	0.3	CLint scaled at 1 µM [2]: 6.6 mL/min/kg; hepatocyte CLint at 1 µM [2]: 2.6 µL/min/1e6 cells; half-life at 1 µM [2]: 8.9 h; Human Hepatocyte Remaining Percentage @ 120 min (pooled human hepatocytes): 88
Cc1csc(Nc2cc(C3(C(=O)O)CCC3)ccc2N(CC(C)C)C2CCOCC2)n1 [Compound 76]	1.1	–
CC(C)CN(c1ccc(C2(C(=O)O)CCC2)cc1Nc1ccc(S(C)(=O)=O)cc1)C1CCOCC1 [Compound 77]	3	–
CC(C)CN(c1ccc(C2(C(=O)O)CCC2)cc1NC1CCCC1)C1CCOCC1 [Compound 78]	13.9	–
CC(C)CN(c1ccc(C2(C(=O)O)CCC2)cc1NCC1CC1)C1CCOCC1 [Compound 80]	29	–
CC(C)CN(CC(C)C)c1ncc(C2(C(=O)O)CCC2)cc1NC(=O)Nc1ccc(F)cc1F [Compound 83]	5.4	–
Cc1cc(NC(=O)Nc2cc(C3(C(=O)O)CCC3)cnc2N(CC(C)C)CC(C)C)on1 [Compound 85]	19	–
CC(C)CN(c1ccc(C2(C(=O)O)CCC2)cc1Nc1cnn(C)c1)C1CCOCC1 [Compound 87]	6.5	–
CC(C)CN(c1ccc(C2(C(=O)O)CCC2)cc1Nc1ccc(Cl)cc1F)C1CCOCC1 [Compound 88]	1.7	–
CC(C)CN(c1ccc(C2(C(=O)O)CCC2)cc1Nc1ccc(F)cc1F)C1CCOCC1 [Compound 89]	6.3	–
CC(C)CN(c1ncc(C2(C(=O)O)CCC2)cc1NC(=O)Nc1ccc(F)cc1F)C1CCOCC1 [Compound 90]	33	–
CC(C)CN(c1ncc(C2(C(=O)O)CCC2)cc1Nc1ccc(Cl)cc1)C1CCOCC1 [Compound 92]	0.2	–
CC(C)CN(CC(C)C)c1ncc(C2(C(=O)O)CCC2)cc1Nc1ccc(C#N)cc1 [Compound 93]	0.3	–
CC(C)CN(c1ccc(C2(C(=O)O)CCC2)cc1Nc1ccc(C#N)cn1)C1CCCCC1 [Compound 94]	0.2	–
CC(C)N(CC1CC1)c1ccc(C2(C(=O)O)CCC2)cc1Nc1ccc(Cl)cc1 [Compound 95]	0.4	–
CC(C)CN(CC(C)C)c1ccc(C2(C(=O)O)CCC2)cc1Nc1ccc(Cl)cc1 [Compound 96]	0.4	–
CCOc1ncc(Nc2cc(C3(C(=O)O)CCC3)ccc2N(CC(C)C)CC(C)C)cn1 [Compound 97]	2.4	–
CCOc1ncc(Nc2cc(C3(C(=O)O)CCC3)ccc2N(CC2CC2)C(C)C)cn1 [Compound 98]	2.8	–
CC(C)CN(c1ccc(CC(=O)O)cc1Nc1ccc(C#N)cc1)C1CCCCC1 [Compound 99]	3.9	–
CC(C)CN(c1ccc(C2(C(=O)O)CCC2)cc1Nc1cccc(Cl)c1)C1CCOCC1 [Compound 100]	3.5	–
CCOc1ncc(Nc2cc(C3(C(=O)O)CCC3)cnc2N2C3CCC2CC(c2ccc(F)cc2)C3)cn1 (stereo not shown) [Compound 127]	–	IC50 [1]: 22 nM

Second part, led by results:

IC50 [1, 3] [nM]	SMILES	further results
0.2	CC(C)CN(c1ccc(C2(C(=O)O)CCC2)cc1Nc1ccc(Cl)c(F)c1)C1CCOCC1 [Compound 101]	–
0.2	CC(C)CN(c1ccc(C2(C(=O)O)CCC2)cc1Nc1ccc(Cl)cn1)C1CCOCC1 [Compound 102]	–
20	CC(C)CN(c1ccc(C2(C(=O)O)CCC2)cc1Nc1cc(Cl)cc(Cl)c1)C1CCOCC1 [Compound 103]	–
1.8	CC(C)CN(c1ccc(CC(=O)O)cc1Nc1ccc(Cl)cc1)C1CCOCC1 [Compound 104]	–
0.3	CC(C)N(CC1CC1)c1ccc(C2(C(=O)O)CCC2)cc1Nc1ccc(C#N)cn1 [Compound 108]	–
> 316	CCOc1ncc(Nc2cc(CC(=O)O)ccc2N(CC(C)C)C2CCOCC2)cn1 [Compound 109]	–
0.2	CC(C)N(CC1CC1)c1ccc(C2(C(=O)O)CCC2)cc1Nc1ccc(C#N)cc1 [Compound 112]	–
0.4	CC(C)N(CC1CC1)c1ccc(C2(C(=O)O)CCC2)cc1Nc1ccc(Cl)cn1 [Compound 113]	–
25	CCOc1ncc(Nc2cc(C(C)(C)C(=O)O)ccc2N(CC2CC2)C(C)C)cn1 [Compound 114]	–
0.5	CC(C)N(CC1CC1)c1ncc(C2(C(=O)O)CCC2)cc1Nc1ccc(C#N)cc1 [Compound 116]	–
4.1	CCOc1ncc(Nc2cc(C(C)(C)C(=O)O)ccc2N(CC(C)C)C2CCOCC2)cn1 [Compound 121]	–
2.3	CCOc1ncc(Nc2cc(C3(C(=O)O)CCC3)cnc2N(CC(C)C)C2CCOCC2)cn1 [Compound 122]	–
11.3	CCOc1ncc(Nc2cc(C3(C(=O)O)CCC3)cnc2N(CC)C2CCOCC2)cn1 [Compound 124]	–
7.5	CCOc1ncc(Nc2cc(C3(C(=O)O)CCC3)cnc2N2CCC(c3ccccc3)CC2)cn1 [Compound 126]	–
9.3	CC(C)C1COCCN1c1ncc(C2(C(=O)O)CCC2)cc1Nc1ccc(Cl)cc1 (stereo not shown) [Compound 128]	–
3	Cc1cc(NC(=O)Nc2cc([C@H]3C[C@H]3C(=O)O)ccc2N(CC(C)C)CC(C)C)on1 [Control 2, (1R,2S)-2-(4-(diisobutylamino)-3-(3-(3-methylisoxazol-5-yl)ureido)phenyl)cyclopropanecarboxylic acid, reference compound]	–
